SMILES strings stand for the structures.

Test [1] addresses T1, recombinant human ACC1 (rhACC1) (Homo sapiens, UniProt Q13085, DEL44-44).
T1 construct: recombinant baculovirus containing full length human ACC1 cDNA; made in house; host or cells: SF9 insect cells, recombinant baculovirus
Briefly: recombinant hACC1 Transcreener ADP detection FP assay. It is filed as biochemical. As to conditions: 50 μM ATP, 30 μM acetyl-CoA. The procedure:
(§1) For example direct inhibition of ACC activity, for the compound of Formula (I) was determined using preparations of recombinant human ACC1 (rhACC1) and recombinant human ACC2 (rhACC2). Representative sequences of the recombinant human ACC1 and ACC2 that can be used in the assay are provided herein as SEQ ID NO. 1 and SEQ. ID NO. 2, respectively.
[1] Preparation of rhACC1. Two liters of SF9 cells, infected with recombinant baculovirus containing full length human ACC1 cDNA, were suspended in ice-cold lysis buffer (25 mM Tris, pH 7.5; 150 mM NaCl; 10% glycerol; 5 mM imidazole (EMD Bioscience; Gibbstown, N.J.); 2 mM TCEP (BioVectra; Charlottetown, Canada); Benzonase nuclease (10000 U/100 g cell paste; Novagen; Madison, Wis.); EDTA-free protease inhibitor cocktail (1 tab/50 mL; Roche Diagnostics; Mannheim, Germany). Cells were lysed by 3 cycles of freeze-thaw and centrifuged at 40,000×g for 40 minutes (4° C.). Supernatant was directly loaded onto a HisTrap FF crude column (GE Healthcare; Piscataway, N.J.) and eluted with an imidazole gradient up to 0.5 M over 20 column volumes (CV). ACC1-containing fractions were pooled and diluted 1:5 with 25 mM Tris, pH 7.5, 2 mM TCEP, 10% glycerol and direct loaded onto a CaptoQ (GE Healthcare) column and eluted with an NaCl gradient up to 1 M over 20 CV's. Phosphate groups were removed from purified ACC1 by incubation with lambda phosphatase (100 U/10 μM target protein; New England Biolabs; Beverly, Mass.) for 14 hours at 4° C.; okadaic acid was added (1 μM final concentration; Roche Diagnostics) to inhibit the phosphatase. Purified ACC1 was exchanged into 25 mM Tris, pH 7.5, 2 mM TCEP, 10% glycerol, 0.5 M NaCl by 6 hour dialysis at 4° C. Aliquots were prepared and frozen at −80° C.
[2] Measurement of rhACC1 inhibition. hACC1 was assayed in a Costar #3676 (Costar, Cambridge, Mass.) 384-well plate using the Transcreener ADP detection FP assay kit (Bellbrook Labs, Madison, Wis.) using the manufacturer's recommended conditions for a 50 μM ATP reaction. The final conditions for the assay were 50 mM HEPES, pH 7.2, 10 mM MgCl2, 7.5 mM tripotassium citrate, 2 mM DTT, 0.1 mg/mL BSA, 30 μM acetyl-CoA, 50 μM ATP, and 10 mM KHCO3 Typically, a 10 μl reaction was run for 120 min at 25° C., and 10 μl of Transcreener stop and detect buffer was added and the combination incubated at room temp for an additional 1 hour. The data was acquired on a Envision Fluorescence reader (Perkinelmer) using a 620 excitation Cy5 FP general dual mirror, 620 excitation Cy5 FP filter, 688 emission (S) and a 688 (P) emission filter.
(§2) The results using the recombinant hACC1 and recombinant hACC2 Transcreener assays described above are summarized in the table below for the Compounds of Formula (I) exemplified in the Examples above.

Test [2] has as its target T2, recombinant human ACC2 (rhACC2) (Homo sapiens, UniProt O00763, V2141I).
T2 construct: a full length Cytomax clone of ACC2 was purchased from Cambridge Bioscience Limited; made in house; host or cells: CHO cells, tetracycline-induced (PcDNA5 FRT TO-TOPO)
Briefly: recombinant hACC2 Transcreener ADP detection FP assay. The class given is biochemical. As to conditions: 50 μM ATP, 30 μM acetyl-CoA. The protocol:
as §1
[3] Preparation of rhACC2. Human ACC2 inhibition was measured using purified recombinant human ACC2 (hrACC2). Briefly, a full length Cytomax clone of ACC2 was purchased from Cambridge Bioscience Limited and was sequenced and subcloned into PcDNA5 FRT TO-TOPO (Invitrogen, Carlsbad, Calif.). The ACC2 was expressed in CHO cells by tetracycline induction and harvested in 5 liters of DMEM/F12 with glutamine, biotin, hygromycin and blasticidin with 1 μg/mL tetracycline (Invitrogen, Carlsbad, Calif.). The conditioned medium containing ACC2 was then applied to a Softlink Soft Release Avidin column (Promega, Madison, Wis.) and eluted with 5 mM biotin. 4 mgs of ACC2 were eluted at a concentration of 0.05 mg/mL (determined by A280) with an estimated purity of 95% ([…]). The purified ACC2 was dialyzed in 50 mM Tris, 200 mM NaCl, 4 mM DTT, 2 mM EDTA, and 5% glycerol. The pooled protein was frozen and stored at −80° C., with no loss of activity upon thawing. For measurement of ACC2 activity and assessment of ACC2 inhibition, test compounds were dissolved in DMSO and added to the rhACC2 enzyme as a 5× stock with a final DMSO concentration of 1%.
[4] Measurement of human ACC2 inhibition. hACC2 was assayed in a Costar #3676 (Costar, Cambridge, Mass.) 384-well plate using the Transcreener ADP detection FP assay kit (Bellbrook Labs, Madison, Wis.) using the manufacturer's recommended conditions for a 50 uM ATP reaction. The final conditions for the assay were 50 mM HEPES, pH 7.2, 5 mM MgCl2, 5 mM tripotassium citrate, 2 mM DTT, 0.1 mg/mL BSA, 30 μM acetyl-CoA, 50 μM ATP, and 8 mM KHCO3. Typically, a 10 μl reaction was run for 50 min at 25° C., and 10 μl of Transcreener stop and detect buffer was added and the combination incubated at room temp for an additional 1 hour. The data was acquired on an Envision Fluorescence reader (Perkinelmer) using a 620 excitation Cy5 FP general dual mirror, 620 excitation Cy5 FP filter, 688 emission (S) and a 688 (P) emission filter.
as §2

T2 sequence (O00763 whole entry V2141I): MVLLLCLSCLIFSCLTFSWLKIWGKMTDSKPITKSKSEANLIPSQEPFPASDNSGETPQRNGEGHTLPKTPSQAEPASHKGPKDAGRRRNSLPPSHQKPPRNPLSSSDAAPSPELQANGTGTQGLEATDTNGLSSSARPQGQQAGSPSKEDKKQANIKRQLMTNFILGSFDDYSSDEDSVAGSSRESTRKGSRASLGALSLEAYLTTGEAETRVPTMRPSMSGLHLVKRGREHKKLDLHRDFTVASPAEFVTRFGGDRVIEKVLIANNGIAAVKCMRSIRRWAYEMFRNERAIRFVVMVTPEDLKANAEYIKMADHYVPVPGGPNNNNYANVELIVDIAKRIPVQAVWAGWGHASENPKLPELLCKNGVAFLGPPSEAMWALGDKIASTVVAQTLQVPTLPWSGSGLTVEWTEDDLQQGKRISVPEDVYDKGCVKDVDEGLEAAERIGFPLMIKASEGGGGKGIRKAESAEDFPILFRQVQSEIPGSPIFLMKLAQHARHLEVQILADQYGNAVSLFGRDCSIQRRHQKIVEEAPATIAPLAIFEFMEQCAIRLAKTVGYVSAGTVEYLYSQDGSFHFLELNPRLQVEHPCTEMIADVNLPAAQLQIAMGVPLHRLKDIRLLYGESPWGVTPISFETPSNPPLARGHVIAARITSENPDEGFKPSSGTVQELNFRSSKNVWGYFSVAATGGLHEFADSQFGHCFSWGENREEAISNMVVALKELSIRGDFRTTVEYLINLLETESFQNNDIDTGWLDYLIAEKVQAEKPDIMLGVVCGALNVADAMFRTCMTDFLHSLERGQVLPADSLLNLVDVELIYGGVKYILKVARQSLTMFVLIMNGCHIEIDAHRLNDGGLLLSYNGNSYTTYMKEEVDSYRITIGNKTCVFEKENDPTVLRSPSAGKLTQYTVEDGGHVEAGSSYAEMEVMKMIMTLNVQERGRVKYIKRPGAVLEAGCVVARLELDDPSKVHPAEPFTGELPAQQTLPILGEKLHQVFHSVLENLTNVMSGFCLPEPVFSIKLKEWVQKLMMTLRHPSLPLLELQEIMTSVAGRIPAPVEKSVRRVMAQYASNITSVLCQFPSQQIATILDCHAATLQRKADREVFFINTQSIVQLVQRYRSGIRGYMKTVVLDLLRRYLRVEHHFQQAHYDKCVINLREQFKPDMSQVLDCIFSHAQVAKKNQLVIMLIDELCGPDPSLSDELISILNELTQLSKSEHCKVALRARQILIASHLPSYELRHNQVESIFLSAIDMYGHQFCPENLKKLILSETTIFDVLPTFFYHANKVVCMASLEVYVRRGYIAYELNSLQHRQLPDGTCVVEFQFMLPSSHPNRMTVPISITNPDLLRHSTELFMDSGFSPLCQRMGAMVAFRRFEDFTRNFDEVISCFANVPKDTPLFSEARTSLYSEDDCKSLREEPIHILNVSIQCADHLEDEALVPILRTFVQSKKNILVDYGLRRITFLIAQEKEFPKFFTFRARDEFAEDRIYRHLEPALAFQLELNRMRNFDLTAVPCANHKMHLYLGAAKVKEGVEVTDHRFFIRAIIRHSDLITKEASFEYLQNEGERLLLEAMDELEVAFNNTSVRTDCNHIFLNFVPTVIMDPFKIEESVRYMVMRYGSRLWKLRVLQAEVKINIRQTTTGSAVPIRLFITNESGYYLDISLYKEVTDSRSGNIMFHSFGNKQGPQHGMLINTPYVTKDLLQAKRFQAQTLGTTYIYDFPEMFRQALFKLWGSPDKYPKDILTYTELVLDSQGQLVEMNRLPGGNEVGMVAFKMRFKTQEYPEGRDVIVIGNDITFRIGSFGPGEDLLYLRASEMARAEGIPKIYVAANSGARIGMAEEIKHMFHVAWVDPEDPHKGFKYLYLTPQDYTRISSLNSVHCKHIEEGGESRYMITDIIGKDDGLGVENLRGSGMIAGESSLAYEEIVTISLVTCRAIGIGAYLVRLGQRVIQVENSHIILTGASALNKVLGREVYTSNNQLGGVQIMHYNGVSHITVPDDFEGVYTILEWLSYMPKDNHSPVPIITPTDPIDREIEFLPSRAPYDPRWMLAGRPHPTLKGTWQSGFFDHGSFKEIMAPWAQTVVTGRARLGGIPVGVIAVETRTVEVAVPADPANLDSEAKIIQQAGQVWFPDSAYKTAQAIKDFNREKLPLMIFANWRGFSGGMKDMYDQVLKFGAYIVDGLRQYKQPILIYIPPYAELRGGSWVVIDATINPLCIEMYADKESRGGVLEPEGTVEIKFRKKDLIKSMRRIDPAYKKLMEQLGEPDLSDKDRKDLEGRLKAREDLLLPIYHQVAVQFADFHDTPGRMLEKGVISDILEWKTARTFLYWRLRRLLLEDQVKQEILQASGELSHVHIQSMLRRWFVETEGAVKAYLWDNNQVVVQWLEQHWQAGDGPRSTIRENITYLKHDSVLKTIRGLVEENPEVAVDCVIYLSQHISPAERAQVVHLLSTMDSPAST

As to `CC(C)(C)n1ncc2c1C(=O)CC1(CCN(C(=O)c3ccc4[nH]nc(C(N)=O)c4c3)CC1)C2` [Example 26], the IC50 in test [1] was found to be 7.4 nM; in test [2], 2.1 nM.
For `CC(C)n1ncc2c1C(=O)CC1(CCN(C(=O)c3ccc4[nH]c(C(N)=O)nc4c3)CC1)C2` [Example 21, 5-[(1-isopropyl-7-oxo-1,4,6,7-tetrahydro-1′H-spiro[indazole-5,4′-piperidin]-1′-yl)carbonyl]-1H-benzimidazole-2-carboxamide] the same measures were 47 nM and 6.7 nM.
In the same order, the values of `CC(C)n1ncc2c1C(=O)CC1(CCN(C(=O)c3ccc4[nH]nc(C(=O)NCC(F)(F)F)c4c3)CC1)C2` [Example 11] are 14 nM and 5.5 nM.
For `CC(C)n1ncc2c1C(=O)CC1(CCN(C(=O)c3ccc4[nH]cc(C(N)=O)c4c3)CC1)C2` [Example 7] the same measures were 5.6 nM and 1.6 nM.
For the molecule `COc1cc2cc(C(=O)N3CCC4(CC3)CC(=O)c3c(cnn3C(C)C)C4)cnc2cc1C(N)=O` [Example 22, 3-[(1-isopropyl-7-oxo-1,4,6,7-tetrahydro-1′H-spiro[indazole-5,4′-piperidin]-1′-yl)carbonyl]-6-methoxyquinoline-7-carboxamide], the concentration for half-maximal inhibition (IC50) in test [1] is 30 nM; in test [2] it was 6.9 nM.
In the case of `CC(C)n1ncc2c1C(=O)CC1(CCN(C(=O)c3ccc4cc(C(N)=O)[nH]c4c3)CC1)C2` [Example 12], the values for the IC50 in test [1] and in test [2] were 13 nM and 3 nM, respectively.
For `CNc1ccc2ccc(C(=O)N3CCC4(CC3)CC(=O)c3nn(C(C)(C)C)cc3C4)cc2n1` [Example 40] the same measures were 2.2 nM and 1.3 nM.
Take `CC(C)(C)n1cc2c(n1)C(=O)CC1(CCN(C(=O)c3ccc4[nH]nc(C#N)c4c3)CC1)C2` [Example 43]: the results for the IC50 in test [1] and in test [2] were 6.4 nM and 2.8 nM, respectively.
In the same order, the values of `CC(C)(C)n1cc2c(n1)C(=O)CC1(CCN(C(=O)c3ccc4c(C#N)n[nH]c4c3)CC1)C2` [Example 41] are 18 nM and 3.7 nM.
For `O=C1CC2(CCN(C(=O)c3ccc4[nH]ncc4c3)CC2)Cc2cn(C34CC(C3)C4)nc21` [Example 48, 2-bicyclo[1.1.1]pent-1-yl-1′-(1H-indazol-5-ylcarbonyl)-2,4-dihydrospiro[indazole-5,4′-piperidin]-7(6H)-one], the IC50 in test [1] is 32 nM; in test [2], 5.6 nM.
For the molecule `CC(C)n1ncc2c1C(=O)CC1(CCN(C(=O)c3ccc4c(C#N)n[nH]c4c3)CC1)C2` [Example 17], the results for the IC50 in test [1] and in test [2] were 19 nM and 11 nM, respectively.
For `CNC(=O)c1n[nH]c2ccc(C(=O)N3CCC4(CC3)CC(=O)c3nn(C(C)(C)C)cc3C4)cc12` [Example 37] the same measures were 2.9 nM and 1.3 nM.
For `CC(C)n1ncc2c1C(=O)CC1(CCN(C(=O)c3cnc4[nH]c(C(N)=O)cc4c3)CC1)C2` [Example 19, 5-[(1-isopropyl-7-oxo-1,4,6,7-tetrahydro-1′H-spiro[indazole-5,4′-piperidin]-1′-yl)carbonyl]-1H-pyrrolo[2,3-b]pyridine-2-carboxamide] the same measures were 63 nM and 15 nM.
As to `CC(C)(C)n1cc2c(n1)C(=O)CC1(CCN(C(=O)c3cnc4c(C(N)=O)c[nH]c4c3)CC1)C2` [Example 45, 6-[(2-tert-butyl-7-oxo-2,4,6,7-tetrahydro-1′H-spiro[indazole-5,4′-piperidin]-1′-yl)carbonyl]-1H-pyrrolo[3,2-b]pyridine-3-carboxamide], the results for the half-maximal inhibitory concentration (IC50) in test [1] and in test [2] were 23 nM and 2.8 nM, respectively.
With `CC(C)n1ncc2c1C(=O)CC1(CCN(C(=O)c3ccc4ccc(N)nc4c3)CC1)C2` [Example 25, 1′-[(2-aminoquinolin-7-yl)carbonyl]-1-isopropyl-1,4-dihydrospiro[indazole-5,4′-piperidin]-7(6H)-one], the 50% inhibitory concentration (IC50) in test [1] worked out at 12 nM; in test [2], 10 nM.
For `CC(C)n1ncc2c1C(=O)CC1(CCN(C(=O)c3ccc4[nH]c(N)nc4c3)CC1)C2` [Example 8] the same measures were 17 nM and 3.3 nM.
Turning to `CC(C)n1ncc2c1C(=O)CC1(CCN(C(=O)c3cnc4[nH]cc(C(N)=O)c4c3)CC1)C2` [Example 5], the 50% inhibitory concentration (IC50) in test [1] was found to be 17 nM; in test [2], 5.8 nM.
For `CC(C)(C)n1cc2c(n1)C(=O)CC1(CCN(C(=O)c3ccc4cc(C(N)=O)[nH]c4c3)CC1)C2` [Example 34] the same measures were 8.1 nM and 2.8 nM.
In the same order, the values of `CC(C)n1ncc2c1C(=O)CC1(CCN(C(=O)c3cnc4ccc(OCC(N)=O)cc4c3)CC1)C2` [Example 24, 2-({3-[(1-isopropyl-7-oxo-1,4,6,7-tetrahydro-1′H-spiro[indazole-5,4′-piperidin]-1′-yl)carbonyl]quinolin-6-yl}oxy)acetamide] are 43 nM and 20 nM.
In the same order, the values of `CC(C)n1ncc2c1C(=O)CC1(CCN(C(=O)c3ccc4c(C(N)=O)n[nH]c4c3)CC1)C2` [Example 4] are 6.5 nM and 2.9 nM.
Take `CC(C)(C)n1cc2c(n1)C(=O)CC1(CCN(C(=O)c3ccc4[nH]cc(C(N)=O)c4c3)CC1)C2` [Example 33]: the half-inhibitory concentration (IC50) worked out at 3.1 nM in test [1] and 1 nM in test [2].
For `CNc1ccc2ccc(C(=O)N3CCC4(CC3)CC(=O)c3c(cnn3C(C)C)C4)cc2n1` [Example 13], the values for the concentration for half-maximal inhibition (IC50) in test [1] and in test [2] were 2.4 nM and 1.5 nM, respectively.
`CCNC(=O)c1n[nH]c2ccc(C(=O)N3CCC4(CC3)CC(=O)c3c(cnn3C(C)C)C4)cc12` [Example 10]: the 50% inhibitory concentration (IC50) in test [1] was 6.1 nM; in test [2], 2.7 nM.
As for `CC(C)(C)n1cc2c(n1)C(=O)CC1(CCN(C(=O)c3ccc4[nH]nc(C(=O)NCC(F)(F)F)c4c3)CC1)C2` [Example 38], the figures for the 50% inhibitory concentration (IC50) in test [1] and in test [2] were 4.3 nM and 1.1 nM, respectively.
For `CC(C)(C)n1cc2c(n1)C(=O)CC1(CCN(C(=O)c3ccc4c(C(N)=O)n[nH]c4c3)CC1)C2` [Example 29] the same measures were 8.6 nM and 1.7 nM.
For `CC(C)(C)n1cc2c(n1)C(=O)CC1(CCN(C(=O)c3cnc4ccc(C(N)=O)cc4c3)CC1)C2` [Example 44] the same measures were 31 nM and 5.4 nM.

Broadly, the IC50 is the concentration at which inhibition is half-maximal.
